Assay [1] addresses T1, human CRF2a receptor (Homo sapiens, UniProt Q13324).
T1 construct: expressed in transfected cells; host or cells: TeloHEAC cells
T1 sequence (Q13324 1-411): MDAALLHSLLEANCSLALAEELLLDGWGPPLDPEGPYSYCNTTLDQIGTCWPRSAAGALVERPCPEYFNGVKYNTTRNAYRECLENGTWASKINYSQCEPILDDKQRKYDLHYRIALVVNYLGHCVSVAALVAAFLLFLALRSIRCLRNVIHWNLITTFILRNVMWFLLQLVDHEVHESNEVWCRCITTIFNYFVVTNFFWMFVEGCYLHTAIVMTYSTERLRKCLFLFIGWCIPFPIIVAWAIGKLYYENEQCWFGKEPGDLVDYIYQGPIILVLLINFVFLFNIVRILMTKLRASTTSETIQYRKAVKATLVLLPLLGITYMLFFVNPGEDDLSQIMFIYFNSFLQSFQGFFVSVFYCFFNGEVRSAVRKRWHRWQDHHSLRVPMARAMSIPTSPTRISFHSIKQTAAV
As to the kind of experiment: Activity at human CRF2a receptor, cAMP functional assay in TeloHEAC cells. Type of assay: cell-based. The conditions noted are these: TeloHEAC cells stably expressing human CRF2a receptor, relative to urocortin 2 (100 nM = 100%). A digest of the protocol:
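TeloHEAC cells stably expressing human CRF2a (10000 cells/well, suspended in HBSS/20 mM HEPES with 2 mM IBMX) were exposed to compounds for 30 min at 37 °C. cAMP was read as the 665/620 nm fluorescence ratio after 1 h at room temperature. EC50 was derived relative to 100 nM urocortin 2, set as 100%.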

Assay [2] has as its target T2, CFR1R receptor (Homo sapiens, UniProt P34998).
T2 construct: host or cells: CHO-K1 (clone 2)
T2 sequence (P34998 24-415): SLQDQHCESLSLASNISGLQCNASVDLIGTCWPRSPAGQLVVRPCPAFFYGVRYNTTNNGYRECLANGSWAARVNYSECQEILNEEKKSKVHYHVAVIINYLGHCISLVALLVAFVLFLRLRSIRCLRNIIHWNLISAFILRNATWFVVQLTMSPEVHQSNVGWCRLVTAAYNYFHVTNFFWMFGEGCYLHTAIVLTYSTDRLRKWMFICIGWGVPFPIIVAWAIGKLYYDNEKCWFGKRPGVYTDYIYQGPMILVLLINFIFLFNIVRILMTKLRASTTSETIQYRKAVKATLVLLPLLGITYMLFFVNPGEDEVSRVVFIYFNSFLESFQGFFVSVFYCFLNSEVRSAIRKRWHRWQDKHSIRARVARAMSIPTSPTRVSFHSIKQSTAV
The assay can be described thus: Activity at anti-target CFR1R receptor, cAMP assay in CRF1R-overexpression CHO-K1 cells. Type of assay: cell-based. The conditions noted are these: 100% = Sauvagine at 100 nM; for EC50: cAMP. A digest of the protocol: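 Clone 2; cryopreserved stocks (10% DMSO); 4000 cells/well final; 100% activation = Sauvagine 100 nM; otherwise as TeloHAEC protocol.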

Usually EC50 stands for the concentration giving half of the maximal effect. Read a high EC50 as a need for much substance.

*1 amine or outer side, *2 acyl side, *3 side chain or, on linkers, in order; H or OH if unused. Where a SMILES comes first, the peptide text is derived from it. Side-chain parts run from the residue outwards. [ ]: non-standard residue; d: D form. The star is where a group is joined. C16 diacid = O=C(O)CCCCCCCCCCCCCCC(=O)*; γGlu = O=C(O)[C@H](CCC(=O)[*:2])N[*:1]; αMeL = CC(C)C[C@](C)(N)C(=O)O; AEEA = NCCOCCOCC(=O)O; Aib = CC(C)(N)C(=O)O A value given as a limit tells only on which side of the number the result lay.

With `CC[C@H](C)[C@H](NC(C)=O)C(=O)N[C@H](C(=O)N[C@@H](CC(C)C)C(=O)N[C@@H](CO)C(=O)N[C@@H](CC(C)C)C(=O)N[C@@H](CC(=O)O)C(=O)N[C@@H](C(=O)N1CCC[C@H]1C(=O)N[C@H](C(=O)N[C@@H](CCCCN)C(=O)N[C@@H](CC(C)C)C(=O)N[C@@H](CCCCNC(=O)COCCOCCNC(=O)COCCOCCNC(=O)CC[C@H](NC(=O)CCCCCCCCCCCCCCC(=O)O)C(=O)O)C(=O)N[C@@H](CCCCN)C(=O)N[C@H](C(=O)N[C@@H](CC(C)C)C(=O)N[C@@H](CC(C)C)C(=O)N[C@@H](CCC(=O)O)C(=O)N[C@@H](CCC(N)=O)C(=O)N[C@@H](CCC(=O)O)C(=O)N[C@@H](CCCCN)C(=O)N[C@@H](CCC(N)=O)C(=O)N[C@@H](CCCCN)C(=O)N[C@@H](CCCCN)C(=O)N[C@@H](CCC(N)=O)C(=O)N[C@@H](CCCNC(=N)N)C(=O)N[C@@H](CCC(=O)O)C(=O)N[C@@H](CCC(N)=O)C(=O)N[C@@H](C)C(=O)N[C@@H](CCC(=O)O)C(=O)N[C@H](C(=O)N[C@@H](CC(N)=O)C(=O)NC(C)(C)C(=O)N[C@@H](CCC(N)=O)C(=O)N[C@H](C(=O)N[C@@H](CC(C)C)C(=O)N[C@@H](C)C(=O)N[C@@H](CCC(N)=O)C(=O)N[C@H](C(N)=O)C(C)C)[C@@H](C)CC)[C@@H](C)O)[C@@H](C)CC)[C@@H](C)CC)C(C)C)C(C)C` [compound 42] (Ac-IVLSLD[dV]PIKLK([AEEA-AEEA-γGlu-C16 diacid])KILLEQEKQKKQREQAETN[Aib]QILAQV-NH2), the figures for the EC50 in assay [1] and in assay [2] were 3.08 nM and greater than 250 nM, respectively. In assay [2], the “Emax (% I)” value turned out to be 1 % I.

Consider `CC[C@H](C)[C@H](NC(C)=O)C(=O)N[C@H](C(=O)N[C@@H](CC(C)C)C(=O)N[C@@H](CO)C(=O)N[C@@H](CC(C)C)C(=O)N[C@@H](CC(=O)O)C(=O)N[C@@H](C(=O)N1CCC[C@H]1C(=O)N[C@H](C(=O)N[C@@H](CCCCN)C(=O)N[C@@](C)(CC(C)C)C(=O)N[C@@H](CCCCNC(=O)CC[C@H](NC(=O)CCCCCCCCCCCCCCC(=O)O)C(=O)O)C(=O)N[C@@H](CCCCN)C(=O)N[C@H](C(=O)N[C@@H](CC(C)C)C(=O)N[C@@H](CC(C)C)C(=O)N[C@@H](CCC(=O)O)C(=O)N[C@@H](CCC(N)=O)C(=O)N[C@@H](CCC(=O)O)C(=O)N[C@@H](CCCCN)C(=O)N[C@@H](CCC(N)=O)C(=O)N[C@@H](CCCCN)C(=O)N[C@@H](CCCCN)C(=O)N[C@@H](CCC(N)=O)C(=O)N[C@@H](CCCNC(=N)N)C(=O)N[C@@H](CCC(=O)O)C(=O)N[C@@H](CCC(N)=O)C(=O)N[C@@H](C)C(=O)N[C@@H](CCC(=O)O)C(=O)N[C@H](C(=O)N[C@@H](CC(N)=O)C(=O)NC(C)(C)C(=O)N[C@@H](CCC(N)=O)C(=O)N[C@H](C(=O)N[C@@H](CC(C)C)C(=O)N[C@@H](C)C(=O)N[C@@H](CCC(N)=O)C(=O)N[C@H](C(N)=O)C(C)C)[C@@H](C)CC)[C@@H](C)O)[C@@H](C)CC)[C@@H](C)CC)C(C)C)C(C)C` [compound 44] (Ac-IVLSLD[dV]PIK[αMeL]K([γGlu-C16 diacid])KILLEQEKQKKQREQAETN[Aib]QILAQV-NH2), for which the EC50 was 0.25 nM in assay [1] and greater than 250 nM in assay [2]. For the same compound, in assay [2], the “Emax (% I)” value was 5 % I.

As to `CC[C@H](C)[C@H](NC(=O)[C@H](CCC(N)=O)NC(=O)C(C)(C)NC(=O)[C@H](CC(N)=O)NC(=O)[C@@H](NC(=O)[C@H](CCC(=O)O)NC(=O)[C@H](C)NC(=O)[C@H](CCC(N)=O)NC(=O)[C@H](CCC(=O)O)NC(=O)[C@H](CCCNC(=N)N)NC(=O)[C@H](CCC(N)=O)NC(=O)[C@H](CCCCN)NC(=O)[C@H](CCCCN)NC(=O)[C@H](CCC(N)=O)NC(=O)[C@H](CCCCN)NC(=O)[C@H](CCC(=O)O)NC(=O)[C@H](CCC(N)=O)NC(=O)[C@H](CCC(=O)O)NC(=O)[C@H](CC(C)C)NC(=O)[C@H](CC(C)C)NC(=O)[C@@H](NC(=O)[C@H](CCCCN)NC(=O)[C@H](CCCCNC(=O)CC[C@H](NC(=O)CCCCCCCCCCCCCCC(=O)O)C(=O)O)NC(=O)[C@H](CC(C)C)NC(=O)[C@H](CCCCN)NC(=O)[C@@H](NC(=O)[C@@H]1CCCN1C(=O)[C@H](NC(=O)[C@H](CC(=O)O)NC(=O)[C@H](CC(C)C)NC(=O)[C@H](CO)NC(=O)[C@H](CC(C)C)NC(=O)[C@@H](NC(C)=O)C(C)C)C(C)C)[C@@H](C)CC)[C@@H](C)CC)[C@@H](C)O)C(=O)N[C@@H](CC(C)C)C(=O)N[C@@H](C)C(=O)N[C@@H](CCC(N)=O)C(=O)N[C@H](C(N)=O)C(C)C` [compound 45] (Ac-VLSLD[dV]PIKLK([γGlu-C16 diacid])KILLEQEKQKKQREQAETN[Aib]QILAQV-NH2), the EC50 in assay [1] was determined as 0.96 nM. Moreover, in assay [2], the “Emax (% I)” value is reported as 5 % I and the EC50 was greater than 250 nM.

With `CC[C@H](C)[C@H](NC(=O)[C@H](CCC(N)=O)NC(=O)C(C)(C)NC(=O)[C@H](CC(N)=O)NC(=O)[C@@H](NC(=O)[C@H](CCC(=O)O)NC(=O)[C@H](C)NC(=O)[C@H](CCC(N)=O)NC(=O)[C@H](CCC(=O)O)NC(=O)[C@H](CCCNC(=N)N)NC(=O)[C@H](CCC(N)=O)NC(=O)[C@H](CCCCN)NC(=O)[C@H](CCCCN)NC(=O)[C@H](CCC(N)=O)NC(=O)[C@H](CCCCN)NC(=O)[C@H](CCC(=O)O)NC(=O)[C@H](CCC(N)=O)NC(=O)[C@H](CCC(=O)O)NC(=O)[C@H](CC(C)C)NC(=O)[C@H](CC(C)C)NC(=O)[C@@H](NC(=O)[C@H](CCCCN)NC(=O)[C@H](CCCCNC(=O)CC[C@H](NC(=O)CCCCCCCCCCCCCCC(=O)O)C(=O)O)NC(=O)[C@](C)(CC(C)C)NC(=O)[C@H](CCCCN)NC(=O)[C@@H](NC(=O)[C@@H]1CCCN1C(=O)[C@H](NC(=O)[C@H](CC(=O)O)NC(=O)[C@H](CC(C)C)NC(=O)[C@H](CO)NC(=O)[C@H](CC(C)C)NC(=O)[C@@H](NC(C)=O)C(C)C)C(C)C)[C@@H](C)CC)[C@@H](C)CC)[C@@H](C)O)C(=O)N[C@@H](CC(C)C)C(=O)N[C@@H](C)C(=O)N[C@@H](CCC(N)=O)C(=O)N[C@H](C(N)=O)C(C)C` [compound 46] (Ac-VLSLD[dV]PIK[αMeL]K([γGlu-C16 diacid])KILLEQEKQKKQREQAETN[Aib]QILAQV-NH2), a half-maximal effect in assay [1] (EC50) was put at 0.7 nM. For the same compound, in assay [2], the “Emax (% I)” value was 6 % I and the EC50 was greater than 250 nM.

`CC[C@H](C)[C@H](NC(C)=O)C(=O)N[C@H](C(=O)N[C@@H](CC(C)C)C(=O)N[C@@H](CO)C(=O)N[C@@H](CC(C)C)C(=O)N[C@@H](CC(=O)O)C(=O)N[C@@H](C(=O)N1CCC[C@H]1C(=O)N[C@H](C(=O)N[C@@H](CCCCN)C(=O)N[C@@H](CC(C)C)C(=O)N[C@@H](CCCCNC(=O)CC[C@H](NC(=O)CCCCCCCCCCCCCCC(=O)O)C(=O)O)C(=O)N[C@@H](CCCCN)C(=O)N[C@H](C(=O)N[C@@H](CC(C)C)C(=O)N[C@@H](CC(C)C)C(=O)N[C@@H](CCC(=O)O)C(=O)N[C@@H](CCC(N)=O)C(=O)N[C@@H](CCC(=O)O)C(=O)N[C@@H](CCCCN)C(=O)N[C@@H](CCC(N)=O)C(=O)N[C@@H](CCCCN)C(=O)N[C@@H](CCCCN)C(=O)N[C@@H](CCC(N)=O)C(=O)N[C@@H](CCCNC(=N)N)C(=O)N[C@@H](CCC(=O)O)C(=O)N[C@@H](CCC(N)=O)C(=O)N[C@@H](C)C(=O)N[C@@H](CCC(=O)O)C(=O)N[C@H](C(=O)N[C@@H](CC(N)=O)C(=O)N[C@H](C(=O)N[C@@H](CCC(N)=O)C(=O)N[C@H](C(=O)N[C@@H](CC(C)C)C(=O)N[C@@H](C)C(=O)N[C@@H](CCC(N)=O)C(=O)N[C@H](C(N)=O)C(C)C)[C@@H](C)CC)C(C)C)[C@@H](C)O)[C@@H](C)CC)[C@@H](C)CC)C(C)C)C(C)C` [compound 48] (Ac-IVLSLD[dV]PIKLK([γGlu-C16 diacid])KILLEQEKQKKQREQAETNVQILAQV-NH2) yielded an EC50 in assay [1] of 1.35 nM. For the same compound, in assay [2], the “Emax (% I)” value is given as 4 % I and the EC50 is greater than 250 nM.

The values above are taken from US20260001928A1 (CORTERIA PHARMACEUTICALS, priority 2022, published 2026).
